In patent US20050208149A1, “Use of arsenic-containing pharmaceutical composition in combination with radiation therapy for cancer treatment” (TTY Biopharm Limited Company, priority 2004, published 2005):
“And” between values parts separate entries of the source, which are not always exact repeats. Equal entries are not always repeated.

Columns and labels:
[1] = Wang Z. Y. 2001; cited from earlier work
[2] = test system: human cervical tumor xenografts; conditions: As2O3 pre-treatment in combination with ionizing radiation; Chun 2002; cited from earlier work
[3] = test system: breast cancer patients with superficial fungating or skin-infiltrating tumors; assay: Monitoring for adverse effects (CTC version 2.0) during combined topical As2O3 and radiation treatment; type: in vivo, human; conditions: for Acute radiation dermatitis, case number / Anorexia, case number / Chronic radiation dermatitis, case number / Fatigue, case number / Granulocytosis, case number / Hyperpigmentation, case number / Leukopenia, case number / Nausea, case number / Thrombocytopenia, case number / Vomit, case number: of 7 patients, topical As2O3 + radiation
Source text: (§1) Between December 2001 and March 2003, seven patients of breast cancer with superficial fungating or skin-infiltrating tumors who had undergone standard treatments received topical As2O3 and radiotherapy at Mackay Memorial Hospital (Table 3). Eligibility criteria for the study included diagnosis of breast cancer confirmed by pathological examination. In addition, patients had to have relapsed after standard treatments such as surgery, radiation therapy or chemotherapy. Six patients had received post-operative radiation to the chest wall and axillary area. Written informed consent was required, and the study protocol was viewed and approved by the institutional review board of the Mackay Memorial Hospital.
(§2) As2O3 gel prepared by Example 2 was administered in daily topical doses that ranged from 0.01 to 0.5 mg/cm2/day, preferred from 0.05-0.15 mg/cm2/day. The gel was administered 1 h prior to the daily radiation treatment and was subsequently removed 5 min prior to the radiation exposure. Electron beam radiotherapy was delivered using a linear accelerator (9-12 MeV, dose rate 2.4 Gy/min; Clinac 1800; Varian Associates, Palo Alto, Calif.). Radiation was administered 5 days a week (total dose: 50 Gy in 25 fractions or 30 Gy in 10 fractions).
With regard to drug absorption via skin, possible systemic adverse effects were evaluated. Serial blood counts and serum chemistry profiles were performed. Serum chemistry profiles, including alanine aminotransferase, aspartate aminotransferase, blood urine nitrogen and creatinine, were measured using a Synchron LX20 spectrophotometer (Beckman Coulter, San Diego, Calif.). An electrocardiogram was recorded before and after irradiation for each patient. Adverse effect and toxicity were evaluated according to the Common Toxicity Criteria (CTC) version 2.0 published by the DCTD, NCI, NIH and DHHS in 1999.

[4] = test system: human cervical cancer cells; conditions: As2O3 pre-treatment in combination with ionizing radiation; Chun 2002; cited from earlier work
[5] = test system: cutaneous metastatic breast cancer; conditions: topical As2O3 alone; Cheng 2003; cited from earlier work
[6] = test system: breast cancer patients with superficial fungating or skin-infiltrating tumors; assay: Assessment of response: topical As2O3 gel plus electron beam radiotherapy; type: in vivo, human; set-up: key to Tumor response: Complete: A complete response was defined as the disappearance of all known skin lesions within radiation fields confirmed by subsequent observation at least 4 weeks apart; Partial: a decrease in the sum of the maximal perpendicular diameters for involved skin area within radiation fields by more than 50%; Progressive: at least 25% increase in the sum of the maximal perpendicular diameters for involved skin area or the appearance of new lesions within radiation fields; Stable: All other tumor outcomes were classified as stable disease; conditions: for Reduction in VAS for skin pain: 100-mm scale
Source text: as §1, §2
Observation for tumor response and skin reaction was conducted daily, with photographs taken weekly. A complete response was defined as the disappearance of all known skin lesions within radiation fields confirmed by subsequent observation at least 4 weeks apart. A partial response was defined as a decrease in the sum of the maximal perpendicular diameters for involved skin area within radiation fields by more than 50% which was confirmed by subsequent observation at least 4 weeks apart. Progressive disease was defined as at least 25% increase in the sum of the maximal perpendicular diameters for involved skin area or the appearance of new lesions within radiation fields. All other tumor outcomes were classified as stable disease. For efficacy of pain control, chest wall pain was estimated using a visual analog scale (VAS) as a subjective assessment. The VAS scores before treatment were set as the baseline for every patient, and we compared the changes between subsequent data after treatment and the baseline data. When differences were greater than 50 mm in a 100-mm scale, we identified this patient as a responder. The daily need for changing dressings (CD) of wounds was also recorded by nurses in charge of each patient.

[7] = combination of topical As2O3 and radiation, pilot study, seven patients
[8] = patient 1, skin infiltration, topical As2O3 gel + radiation 50 Gy
[9] = patient 2, skin infiltration, topical As2O3 gel + radiation 50 Gy
[10] = patient 3, skin infiltration, topical As2O3 gel + radiation 50 Gy
[11] = patient 4, fungating tumor, topical As2O3 gel + radiation 50 Gy
[12] = patient 5, fungating tumor, topical As2O3 gel + radiation 50 Gy
[13] = patient 6, fungating tumor, topical As2O3 gel + radiation 30 Gy
[14] = patient 7, fungating tumor, topical As2O3 gel + radiation 50 Gy

Compound: S1[As]2S[As]3S[As]2S[As]13 [As4S4, tetraarsenic tetraslfide]
- Complete remission rate [1]: 84.9%

Compound: arsenic trioxide [As2O3]
- Effect on regression of established xenografts [2]: synergistic effect
- Acute radiation dermatitis, case number ([3]; CTC grade 0): 1
- Anorexia, case number ([3]; CTC grade 0): 4
- Chronic radiation dermatitis, case number ([3]; CTC grade 0): 4
- Fatigue, case number ([3]; CTC grade 0): 3
- Granulocytosis, case number ([3]; CTC grade 0): 6
- Hyperpigmentation, case number ([3]; CTC grade 0): 7
- Leukopenia, case number ([3]; CTC grade 0): 7
- Nausea, case number ([3]; CTC grade 0): 4
- Thrombocytopenia, case number ([3]; CTC grade 0): 7
- Vomit, case number ([3]; CTC grade 0): 6
- Acute radiation dermatitis, case number ([3]; CTC grade 1): 1
- Anorexia, case number ([3]; CTC grade 1): 2
- Chronic radiation dermatitis, case number ([3]; CTC grade 1): 2
- Fatigue, case number ([3]; CTC grade 1): 2
- Granulocytosis, case number ([3]; CTC grade 1): 1
- Hyperpigmentation, case number ([3]; CTC grade 1): 0
- Leukopenia, case number ([3]; CTC grade 1): 0
- Nausea, case number ([3]; CTC grade 1): 2
- Thrombocytopenia, case number ([3]; CTC grade 1): 0
- Vomit, case number ([3]; CTC grade 1): 1
- Acute radiation dermatitis, case number ([3]; CTC grade 2): 3
- Anorexia, case number ([3]; CTC grade 2): 1
- Chronic radiation dermatitis, case number ([3]; CTC grade 2): 1
- Fatigue, case number ([3]; CTC grade 2): 2
- Granulocytosis, case number ([3]; CTC grade 2): 0
- Hyperpigmentation, case number ([3]; CTC grade 2): 0
- Leukopenia, case number ([3]; CTC grade 2): 0
- Nausea, case number ([3]; CTC grade 2): 1
- Thrombocytopenia, case number ([3]; CTC grade 2): 0
- Vomit, case number ([3]; CTC grade 2): 0
- Acute radiation dermatitis, case number ([3]; CTC grade 3): 2
- Anorexia, case number ([3]; CTC grade 3): 0
- Chronic radiation dermatitis, case number ([3]; CTC grade 3): 0
- Fatigue, case number ([3]; CTC grade 3): 0
- Granulocytosis, case number ([3]; CTC grade 3): 0
- Leukopenia, case number ([3]; CTC grade 3): 0
- Nausea, case number ([3]; CTC grade 3): 0
- Thrombocytopenia, case number ([3]; CTC grade 3): 0
- Vomit, case number ([3]; CTC grade 3): 0
- Acute radiation dermatitis, case number ([3]; CTC grade 4): 0
- Anorexia, case number ([3]; CTC grade 4): 0
- Chronic radiation dermatitis, case number ([3]; CTC grade 4): 0
- Fatigue, case number ([3]; CTC grade 4): 0
- Granulocytosis, case number ([3]; CTC grade 4): 0
- Leukopenia, case number ([3]; CTC grade 4): 0
- Thrombocytopenia, case number ([3]; CTC grade 4): 0
- Vomit, case number ([3]; CTC grade 4): 0
- Time to satisfactory healing of grade 3 acute radiation dermatitis ([3]; after completion of the radiation treatment): 2-3 weeks
- Hematological changes ([3]; combined treatment): no significant hematological changes were observed
- Number of patients with grade 3 acute radiation dermatitis (most severe observed) ([3]; combined treatment): two
- Other adverse reactions ([3]; combined treatment): light-headedness during irradiation and moderate fatigue after radiation
- Patients developing grade 3 chronic radiation dermatitis ([3]; combined treatment): none
- Performance status ([3]; combined treatment): no changes in performance status were evident
- Dermatological toxicity such as skin rash ([3]; daily application less than 1 h, treatment not more than 5 weeks): we did not note any toxicity of this type
- Grade 2-4 granulocytosis or leukopenia ([3]; during the combined therapy): No grade 2-4 granulocytosis or leukopenia was noted
- Skin pigmentation, renal or hepatic function ([3]; during the course of the combined treatment): no skin pigmentation or significant changes in renal or hepatic function
- Effect on decreased clonogenic survival [4]: synergistic effect
- Local tumor control and wound secretion [5]: improved local tumor control and decreased wound secretion
- Systemic absorption, pharmacokinetic study [5]: no significant systemic absorption
- Systemic or local adverse effects [5]: without significant systemic or local adverse effects
- Change in mean daily needed CD frequency ([6]; after treatment for 1 month, all superficial and fungating wounds): 4.4 to 0.9
- Number of patients resistant, classified as stable disease ([6]; chest wall fungating tumor, of seven patients, combined therapy): One
- Number of patients with partial remission ([6]; chest wall fungating tumors, of seven patients, combined therapy): three
- Number of patients with complete remission ([6]; chest wall skin-infiltrating lesions, of seven patients, combined therapy): three
- Clinical response rate, complete remission [6, 7]: 42.9%
- Clinical response rate, partial remission [6, 7]: 42.9%
- Number of patients with relief of chest wall pain assessed by VAS ([6]; of seven patients, combined therapy): seven
- Tumor response [6, 8]: Complete
- Reduction in VAS for skin pain [6, 8]: 75 mm
- Tumor response [6, 9]: Complete
- Reduction in VAS for skin pain [6, 9]: 65 mm
- Tumor response [6, 10]: Complete
- Reduction in VAS for skin pain [6, 10]: 80 mm
- Tumor response [6, 11]: Partial (a decrease in the sum of the maximal perpendicular diameters for involved skin area within radiation fields by more than 50%)
- Reduction in VAS for skin pain [6, 11]: 70 mm
- Tumor response [6, 12]: Partial (a decrease in the sum of the maximal perpendicular diameters for involved skin area within radiation fields by more than 50%)
- Reduction in VAS for skin pain [6, 12]: 65 mm
- Tumor response [6, 13]: Partial (a decrease in the sum of the maximal perpendicular diameters for involved skin area within radiation fields by more than 50%)
- Reduction in VAS for skin pain [6, 13]: 75 mm
- Tumor response [6, 14]: Stable
- Reduction in VAS for skin pain [6, 14]: 55 mm
- Cumulative radiation dosage for remission of chest wall skin lesions ([6]; the three patients with complete remission, respectively): 20 Gy and 22 Gy and 28 Gy
